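Dose response: 5 concentrations. Exposure: 48 h. Format: 96-well plates. Endpoint: linear interpolation; highest concentration if not reached. The concentration for 50% growth inhibition is given as GI50. Definition used: TGI = concentration required for complete inhibition of growth.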 Where only a bound is given, the exact number is not on record here.

Holding throughout (assay): NCI tumour cell line growth inhibition, 48 h
Assay [1] relates to SNB-75 CNS.
The test system of assay [2] is SK-MEL-2 melanoma.
The subject of assay [3] is HCT-116 colon.
The test system of assay [4] is A549 NSCLC.
Assay [5] deals with SK-OV-3 ovarian.
The subject of assay [6] is CAKI-1 renal.
The subject of assay [7] is OVCAR-3 ovarian.
Assay [8] concerns HCC-2998 colon.
The test system of assay [9] is PC-3 prostate.

As for `COc1ccc(-c2c(N)[n+]([O-])c3ccccc3[n+]2[O-])cc1OC`, the TGI in assay [1], in [2], in assay [3], in assay [4], in assay [5] and in [6] was more than 100 µM throughout. This compound also returned a TGI in [7] of more than 100 µM.
Consider `NC(=O)c1ccc2nc3c(n2c1)C(=O)C(=O)c1ccccc1-3`, for which the GI50 in assay [1] was 1560 nM; in [2], 633 nM; in [3], 0.327 µM; in assay [4], 2.18 µM; in [5] it was 1.78 µM; in assay [8], 1.6 µM. For the same compound, the GI50 in [6] is 1.67 µM; in assay [9], 1040 nM; in assay [7], 240 nM. Moreover, the TGI in assay [1] was found to be 2.92 µM; in assay [2], 1.91 µM; in assay [3] it was 1.21 µM; in assay [4], 4.48 µM; in [5], 3.18 µM; in assay [8], 3.13 µM. Besides, the TGI in [6] worked out at 3.22 µM; in assay [9], 2780 nM; in [7] it was 0.63 µM.
For `CC1C(=O)O[C@H]2C1CC[C@@]1(C)[C@H](O)CC[C@@]13C[C@]2(O)OO3` (stereo partly specified), the TGI in assay [3], in [4], in [5], in [8], in [6] and in assay [7] was more than 100 µM throughout.
For the compound `CCC(C(=O)c1ccccc1)C(CCCC(=O)Nc1c(C)cccc1C)N=O` (stereo unspecified), the TGI in assay [1], in assay [2], in assay [3], in assay [4], in [5] and in assay [8] was more than 100 µM throughout. Also, the TGI in [6] and in assay [7] was more than 100 µM in each case.
On to `O=C(NCc1ccncc1)C1COc2cc(-c3cc(=O)c4ccccc4o3)ccc2O1` (stereo unspecified), for which the TGI in [1], in assay [2], in assay [3], in [4], in assay [5] and in assay [8] was more than 100 µM in each case. Besides, the TGI in [7] is more than 100 µM.
As to `N#CC1C2CCC3(CC2CCN1C(=O)c1ccccc1)OCCO3` (stereo unspecified), the TGI in assay [1] is more than 100 µM; in assay [2], 61.9 µM; in assay [3] it was more than 100 µM; in assay [4], more than 100 µM; in assay [5] it was more than 100 µM; in [8] it was more than 100 µM. The compound also displayed a TGI in [7] of more than 100 µM.
`C1=Nc2ccccc2C=Nc2ccccc2C=Nc2ccccc2C=Nc2ccccc21.[Cl-].[Pt+2]`: the GI50 in assay [3] is 25.9 µM; in assay [4], 28.7 µM; in [5], 24.4 µM; in assay [6], 31.4 µM. The TGI in [3] is more than 100 µM; in [4], more than 100 µM; in assay [5], 65.9 µM; in [6] it was 62.5 µM.
`Cc1ccc(Sc2sc(-c3ccccc3)nc2[P+](c2ccccc2)(c2ccccc2)c2ccccc2)cc1`: the GI50 in assay [1] was 210 nM; in assay [2], 275 nM; in assay [3], 0.246 µM; in [5], 0.282 µM; in assay [8], 0.453 µM; in assay [6] it was 0.329 µM. For the same compound, the GI50 in assay [9] was 283 nM; in assay [7], 346 nM. The TGI in [1] turned out to be 0.759 µM; in assay [2], 0.808 µM; in [3], 1.11 µM; in assay [5], 0.863 µM; in assay [8], 1.63 µM; in [6], 1.04 µM. In addition, the TGI in [9] worked out at 1180 nM; in assay [7], 1.23 µM.
For the compound `O=c1c2cccnc2ncn1CCN1CCCC1`, the TGI in assay [1], in assay [2], in [3], in [4], in assay [5] and in assay [8] was more than 100 µM each time. The TGI in [6] and in assay [7] was more than 100 µM in each case.
As for `Cc1ccc(Oc2ccc([N+](=O)[O-])cc2[N+](=O)[O-])c(C)c1`, the TGI in assay [1], in [2], in assay [3], in assay [4], in assay [5] and in [8] was more than 100 µM each time. For the same compound, the TGI in assay [6] and in [7] was more than 100 µM throughout.
Regarding `CC1(O)CCC2(C#N)CCC1C2O` (stereo unspecified), the TGI in assay [1], in assay [2], in assay [3], in assay [4], in assay [5] and in assay [8] was more than 100 µM throughout. Also, the TGI in assay [6] and in assay [7] was more than 100 µM each time.
Turning to `N#C/C(=C\c1ccc(C(O)P(=O)(O)O)cc1)C(N)=O` (stereo unspecified), the TGI in assay [2], in [3], in assay [4], in [5], in [8] and in assay [7] was more than 100 µM in each case.
Consider `CC/C=C/c1cc2cc[nH]c2c2c1C(C)C[C@@H]2C` (stereo partly specified), for which the TGI in assay [1] was 70.1 µM; in [3] it was 29.7 µM; in [4], more than 100 µM; in assay [5], more than 100 µM; in assay [6] it was more than 100 µM; in [7], 40.5 µM.
Turning to `CCOP(=O)(OCC)C1=NC=CC=CC1n1c(-c2ccccc2)nn(CC)c1=O` (stereo unspecified), the TGI in [2], in assay [3], in [4], in assay [5], in [8] and in [6] was more than 100 µM in each case. The TGI in assay [7] is more than 100 µM.
With `COc1cc2c(c(OC)c1OC)-c1ccc(OC)c(=O)cc1[C@@H](N(C)C=O)CC2`, the TGI in [1] is 0.615 µM; in assay [2] it was 0.0487 µM; in [3], 6.83 µM; in assay [4], more than 100 µM; in [8], more than 100 µM; in assay [6], more than 100 µM. In [7], this compound came in with a TGI of 0.047 µM.
For the compound `Cc1c2c(cc3c(=O)ccn(CCN(C)C)c13)c(=O)ccn2CCN(C)C`, the TGI in assay [1] amounted to 25.6 µM; in [2] it was 44.4 µM; in assay [3] it was 19.5 µM; in assay [4], 48.9 µM; in [5], 37.5 µM; in [8] it was 20.3 µM. For the same compound, the TGI turned out to be 67.8 µM in assay [6] and 34.9 µM in assay [7].
On to `COc1cc(/C=C(\OC(C)=O)c2ccc3c(c2)OCO3)cc(OC)c1OC`, for which the TGI in assay [1] is 46.7 µM; in [2], 57.9 µM; in [3], 38.9 µM; in assay [4], more than 100 µM; in assay [5], 66.8 µM; in assay [8], more than 100 µM. In addition, the TGI in assay [6] was more than 100 µM; in assay [7], 49.2 µM. In addition, the GI50 in assay [8] is more than 100 µM.
Turning to `O=C(c1ccc(Cl)cc1)c1ccc(OCCSCCCCCCCCCCSCCOc2ccc(C(=O)c3ccc(Cl)cc3)cc2)cc1`, the TGI in assay [1], in assay [2], in assay [4], in assay [5], in [8] and in [6] was more than 100 µM throughout. Moreover, the TGI in assay [7] was more than 100 µM.
Regarding `COc1cc(Nc2nc3ccc(C(F)(F)F)cc3nc2-c2ccccc2)cc(OC)c1OC`, the TGI is more than 100 µM in assay [1]; more than 100 µM in assay [2]; more than 100 µM in [4]; more than 100 µM in [5]; 25.9 µM in [8]; 79.4 µM in assay [6]. In assay [7], this compound displayed a TGI of more than 100 µM.
Turning to `CSc1ncnc2c1CCN2`, the GI50 in [2] is more than 100000 nM; in [3], more than 100 µM; in assay [4] it was more than 100 µM; in assay [5], more than 100 µM; in assay [8], more than 100 µM; in [7] it was more than 100000 nM. Moreover, the TGI in assay [2], in assay [3], in assay [4], in assay [5] and in assay [8] was more than 100 µM throughout.
Consider `Cc1ccc2c(c1)CNc1ccc(C)cc1CN2`, for which the TGI in assay [1], in assay [2], in assay [3], in assay [4], in assay [5] and in [6] was more than 100 µM each time. This compound also yielded a TGI in [7] of more than 100 µM.
Turning to `CCOC(=O)CSc1[nH]c(NC(=S)Nc2ccccc2)c(C(N)=O)c1C(N)=O`, the TGI in assay [1] is more than 10 µM; in [4], more than 10 µM; in assay [5] it was more than 10 µM; in [8], more than 10 µM; in assay [6], more than 10 µM; in [9] it was more than 10000 nM.
With `N#CC1CC2(C(=O)C1=O)c1ccccc1-c1ccccc12` (stereo unspecified), the TGI in assay [1], in [2], in [3], in assay [4], in [5] and in [8] was more than 100 µM throughout. Further, the TGI in [6] and in [7] was more than 100 µM throughout.
For the compound `NNC(=O)/C(NC(=O)c1ccccc1)=C(\N)c1ccc(Cl)cc1`, the TGI in assay [1], in assay [2], in assay [3], in assay [4], in assay [5] and in assay [8] was more than 100 µM throughout. Also, the TGI in assay [6] and in assay [7] was more than 100 µM throughout.
Take `C1COCCOCCOCCOCCO1.CC(=O)[CH-]C(C)=O.CC(=O)[CH-]C(C)=O.CC(=O)[CH-]C(C)=O.[V]`: the GI50 in assay [1] was 10600 nM; in [2], 10800 nM; in assay [3] it was 13.4 µM; in assay [4], 22.7 µM; in assay [5], 17.6 µM; in [8], 19.6 µM. For the same compound, the GI50 in assay [6] is 15 µM; in assay [7], 13700 nM. Further, the TGI in assay [1] was 23 µM; in [2], 26 µM; in assay [3] it was 27.3 µM; in assay [4], more than 100 µM; in assay [5], 33 µM; in assay [8] it was 40.1 µM. In addition, the TGI in assay [6] worked out at 33.2 µM; in assay [7], 32.3 µM.
Take `O=c1c2ccccc2nc(-c2cccc(Cl)c2)n1NCC1(O)OCC(O)C(O)C1O` (stereo unspecified): the TGI in assay [2], in assay [3], in [4], in [5], in assay [6] and in assay [7] was more than 100 µM each time.
`Cc1cccc(C)c1NC(=O)CCc1n[nH]c(=S)o1`: the TGI was more than 100 µM in [1]; 36.7 µM in [3]; more than 100 µM in assay [4]; more than 100 µM in assay [5]; more than 100 µM in assay [8]; more than 100 µM in assay [6]. Besides, the TGI in [7] is more than 100 µM.
Consider `S=c1nc(N2CCCCC2)ss1`, for which the TGI in [1] was 77 µM; in [2] it was 37.7 µM; in [3], 42.4 µM; in assay [4], 83.7 µM; in [5], more than 100 µM; in assay [8] it was 30 µM. The same compound registered a TGI in assay [6] of more than 100 µM.
`CCOC(=O)/C(=C\c1ccc[nH]1)C(=O)c1ccccc1`: the TGI in assay [1], in assay [2], in assay [3], in assay [4], in assay [5] and in [8] was more than 100 µM in each case. Besides, the TGI in assay [6] and in assay [7] was more than 100 µM throughout.
With `CC(=O)/C=C/c1ccc(C)cc1`, the TGI in [1], in [2], in assay [3], in [4], in assay [5] and in [8] was more than 100 µM throughout. Besides, the TGI in [6] and in assay [7] was more than 100 µM each time.
For `CC(C)CN(CC(C)C)C(=O)C1CCCC[C@@H]1C(=O)O` (stereo partly specified), the TGI in assay [1], in assay [2], in assay [3], in assay [4], in [5] and in assay [8] was more than 100 µM throughout. The TGI in assay [6] and in assay [7] was more than 100 µM each time.
`COc1cc2c(cn1)[nH]c1ccccc12`: the TGI in assay [1], in assay [2], in assay [3], in assay [4], in assay [5] and in [8] was more than 100 µM throughout. The TGI in [6] and in assay [7] was more than 100 µM throughout.

The record behind these values is PubChem BioAssay (NCI).
